Reference: the NIST ThermoML archive (doi:10.1021/je400783h)
Numbers after ± are expanded uncertainties.

Settings: for mass density / vapor or sublimation pressure / viscosity / speed of sound: Liquid; for vapor or sublimation pressure: Ebulliometric method (Recirculating still); for surface tension liquid-gas: Drop volume; for viscosity: Capillary tube (Ostwald / Ubbelohde) method; for speed of sound: Pulse-echo method

OCC1CCCO1 (stereo not given) [2-tetrahydrofurylmethanol]
mass density (313.15 K, 7500 kPa): 1041.89 ± 0.46 kg/m3 | mass density (313.15 K, 10000 kPa): 1043.41 ± 0.48 kg/m3 | mass density (313.15 K, 20000 kPa): 1048.93 ± 0.57 kg/m3 | mass density (313.15 K, 30000 kPa): 1054.21 ± 0.68 kg/m3 | mass density (313.15 K, 40000 kPa): 1059.19 ± 0.81 kg/m3 | mass density (313.15 K, 50000 kPa): 1063.91 ± 0.94 kg/m3 | mass density (313.15 K, 60000 kPa): 1068.44 ± 1.1 kg/m3 | vapor or sublimation pressure (313.15 K): 0.21 ± 0.1 kPa | surface tension liquid-gas (315.65 K): 35.74 ± 0.26 mN/m | viscosity (315.65 K, 101.33 kPa): 3.374 ± 0.072 mPa·s | speed of sound (315.65 K, 101.33 kPa): 1424.1 ± 1.2 m/s | mass density (315.65 K, 101.33 kPa, Vibrating tube method): 1035 ± 0.27 kg/m3 | surface tension liquid-gas (318.15 K): 35.48 ± 0.26 mN/m | mass density (318.15 K, 100 kPa): 1032.83 ± 0.39 kg/m3 | viscosity (318.15 K, 101.33 kPa): 3.177 ± 0.067 mPa·s | speed of sound (318.15 K, 101.33 kPa): 1415.4 ± 1.2 m/s | mass density (318.15 K, 101.33 kPa, Vibrating tube method): 1032.83 ± 0.27 kg/m3 | mass density (318.15 K, 2500 kPa): 1034.57 ± 0.41 kg/m3 | mass density (318.15 K, 5000 kPa): 1036.11 ± 0.42 kg/m3 | mass density (318.15 K, 7500 kPa): 1037.62 ± 0.44 kg/m3 | mass density (318.15 K, 10000 kPa): 1039.11 ± 0.46 kg/m3 | mass density (318.15 K, 20000 kPa): 1044.81 ± 0.55 kg/m3 | mass density (318.15 K, 30000 kPa): 1050.15 ± 0.65 kg/m3 | mass density (318.15 K, 40000 kPa): 1055.24 ± 0.77 kg/m3 | mass density (318.15 K, 50000 kPa): 1060.12 ± 0.91 kg/m3 | mass density (318.15 K, 60000 kPa): 1064.68 ± 1.1 kg/m3 | vapor or sublimation pressure (318.15 K): 0.31 ± 0.1 kPa | surface tension liquid-gas (320.65 K): 35.23 ± 0.26 mN/m | viscosity (320.65 K, 101.33 kPa): 2.996 ± 0.064 mPa·s | speed of sound (320.65 K, 101.33 kPa): 1406.8 ± 1.2 m/s | mass density (320.65 K, 101.33 kPa, Vibrating tube method): 1030.65 ± 0.27 kg/m3 | surface tension liquid-gas (323.15 K): 34.98 ± 0.26 mN/m | mass density (323.15 K, 100 kPa): 1028.47 ± 0.39 kg/m3 | viscosity (323.15 K, 101.33 kPa): 2.83 ± 0.06 mPa·s | speed of sound (323.15 K, 101.33 kPa): 1398.1 ± 1.2 m/s | mass density (323.15 K, 101.33 kPa, Vibrating tube method): 1028.47 ± 0.27 kg/m3 | mass density (323.15 K, 2500 kPa): 1030.3 ± 0.4 kg/m3 | mass density (323.15 K, 5000 kPa): 1031.87 ± 0.41 kg/m3 | mass density (323.15 K, 7500 kPa): 1033.41 ± 0.43 kg/m3 | mass density (323.15 K, 10000 kPa): 1034.93 ± 0.45 kg/m3 | mass density (323.15 K, 20000 kPa): 1040.79 ± 0.53 kg/m3 | mass density (323.15 K, 30000 kPa): 1046.28 ± 0.63 kg/m3 | mass density (323.15 K, 40000 kPa): 1051.44 ± 0.74 kg/m3 | mass density (323.15 K, 50000 kPa): 1056.41 ± 0.87 kg/m3 | mass density (323.15 K, 60000 kPa): 1061.07 ± 1 kg/m3 | vapor or sublimation pressure (323.15 K): 0.43 ± 0.1 kPa | surface tension liquid-gas (325.65 K): 34.72 ± 0.25 mN/m | viscosity (325.65 K, 101.33 kPa): 2.677 ± 0.057 mPa·s | speed of sound (325.65 K, 101.33 kPa): 1389.4 ± 1.2 m/s | mass density (325.65 K, 101.33 kPa, Vibrating tube method): 1026.28 ± 0.27 kg/m3 | surface tension liquid-gas (328.15 K): 34.47 ± 0.25 mN/m | mass density (328.15 K, 100 kPa): 1024.08 ± 0.38 kg/m3 | viscosity (328.15 K, 101.33 kPa): 2.535 ± 0.054 mPa·s | speed of sound (328.15 K, 101.33 kPa): 1380.8 ± 1.2 m/s | mass density (328.15 K, 101.33 kPa, Vibrating tube method): 1024.08 ± 0.26 kg/m3 | mass density (328.15 K, 2500 kPa): 1025.88 ± 0.39 kg/m3 | mass density (328.15 K, 5000 kPa): 1027.49 ± 0.4 kg/m3 | mass density (328.15 K, 7500 kPa): 1029.13 ± 0.42 kg/m3 | mass density (328.15 K, 10000 kPa): 1030.63 ± 0.43 kg/m3 | mass density (328.15 K, 20000 kPa): 1036.6 ± 0.51 kg/m3 | mass density (328.15 K, 30000 kPa): 1042.2 ± 0.6 kg/m3 | mass density (328.15 K, 40000 kPa): 1047.5 ± 0.71 kg/m3 | mass density (328.15 K, 50000 kPa): 1052.52 ± 0.83 kg/m3 | mass density (328.15 K, 60000 kPa): 1057.3 ± 0.97 kg/m3 | vapor or sublimation pressure (328.15 K): 0.63 ± 0.1 kPa | surface tension liquid-gas (330.65 K): 34.22 ± 0.25 mN/m | viscosity (330.65 K, 101.33 kPa): 2.404 ± 0.051 mPa·s | speed of sound (330.65 K, 101.33 kPa): 1372.1 ± 1.2 m/s | mass density (330.65 K, 101.33 kPa, Vibrating tube method): 1021.88 ± 0.26 kg/m3 | surface tension liquid-gas (333.15 K): 33.96 ± 0.25 mN/m | mass density (333.15 K, 100 kPa): 1019.68 ± 0.37 kg/m3 | viscosity (333.15 K, 101.33 kPa): 2.282 ± 0.049 mPa·s | speed of sound (333.15 K, 101.33 kPa): 1363.5 ± 1.2 m/s | mass density (333.15 K, 101.33 kPa, Vibrating tube method): 1019.68 ± 0.26 kg/m3 | mass density (333.15 K, 2500 kPa): 1021.52 ± 0.38 kg/m3 | mass density (333.15 K, 5000 kPa): 1023.18 ± 0.39 kg/m3 | mass density (333.15 K, 7500 kPa): 1024.84 ± 0.4 kg/m3 | mass density (333.15 K, 10000 kPa): 1026.39 ± 0.42 kg/m3 | mass density (333.15 K, 20000 kPa): 1032.49 ± 0.49 kg/m3 | mass density (333.15 K, 30000 kPa): 1038.22 ± 0.58 kg/m3 | mass density (333.15 K, 40000 kPa): 1043.64 ± 0.68 kg/m3 | mass density (333.15 K, 50000 kPa): 1048.73 ± 0.8 kg/m3 | mass density (333.15 K, 60000 kPa): 1053.6 ± 0.93 kg/m3 | vapor or sublimation pressure (333.15 K): 0.86 ± 0.1 kPa | surface tension liquid-gas (335.65 K): 33.71 ± 0.25 mN/m | viscosity (335.65 K, 101.33 kPa): 2.169 ± 0.046 mPa·s | speed of sound (335.65 K, 101.33 kPa): 1354.8 ± 1.2 m/s | mass density (335.65 K, 101.33 kPa, Vibrating tube method): 1017.46 ± 0.26 kg/m3 | surface tension liquid-gas (338.15 K): 33.46 ± 0.25 mN/m | mass density (338.15 K, 100 kPa): 1015.24 ± 0.36 kg/m3 | viscosity (338.15 K, 101.33 kPa): 2.064 ± 0.044 mPa·s | speed of sound (338.15 K, 101.33 kPa): 1346.2 ± 1.2 m/s | mass density (338.15 K, 101.33 kPa, Vibrating tube method): 1015.24 ± 0.26 kg/m3 | mass density (338.15 K, 2500 kPa): 1017.04 ± 0.37 kg/m3 | mass density (338.15 K, 5000 kPa): 1018.75 ± 0.38 kg/m3 | mass density (338.15 K, 7500 kPa): 1020.45 ± 0.39 kg/m3 | mass density (338.15 K, 10000 kPa): 1022.06 ± 0.4 kg/m3 | mass density (338.15 K, 20000 kPa): 1028.31 ± 0.47 kg/m3 | mass density (338.15 K, 30000 kPa): 1034.16 ± 0.55 kg/m3 | mass density (338.15 K, 40000 kPa): 1039.68 ± 0.65 kg/m3 | mass density (338.15 K, 50000 kPa): 1044.89 ± 0.76 kg/m3 | mass density (338.15 K, 60000 kPa): 1049.83 ± 0.88 kg/m3 | vapor or sublimation pressure (338.15 K): 1.15 ± 0.1 kPa | vapor or sublimation pressure (343.15 K): 1.55 ± 0.1 kPa | vapor or sublimation pressure (348.15 K): 2.11 ± 0.1 kPa | vapor or sublimation pressure (353.15 K): 2.72 ± 0.1 kPa | vapor or sublimation pressure (358.15 K): 3.53 ± 0.1 kPa | vapor or sublimation pressure (363.15 K): 4.51 ± 0.1 kPa | vapor or sublimation pressure (368.15 K): 5.72 ± 0.1 kPa | vapor or sublimation pressure (373.15 K): 7.22 ± 0.1 kPa | vapor or sublimation pressure (378.15 K): 9.11 ± 0.1 kPa | vapor or sublimation pressure (383.15 K): 11.18 ± 0.1 kPa | vapor or sublimation pressure (388.15 K): 13.68 ± 0.1 kPa | vapor or sublimation pressure (393.15 K): 16.64 ± 0.1 kPa | vapor or sublimation pressure (398.15 K): 20.17 ± 0.1 kPa | vapor or sublimation pressure (403.15 K): 24.22 ± 0.1 kPa | vapor or sublimation pressure (408.15 K): 28.63 ± 0.11 kPa | vapor or sublimation pressure (413.15 K): 34.22 ± 0.11 kPa | vapor or sublimation pressure (418.15 K): 40.19 ± 0.11 kPa | vapor or sublimation pressure (423.15 K): 47.32 ± 0.12 kPa | vapor or sublimation pressure (428.15 K): 56.31 ± 0.12 kPa | vapor or sublimation pressure (433.15 K): 65.02 ± 0.13 kPa | vapor or sublimation pressure (438.15 K): 74.02 ± 0.13 kPa | vapor or sublimation pressure (443.15 K): 84.98 ± 0.14 kPa | vapor or sublimation pressure (448.15 K): 97.93 ± 0.15 kPa
